Source: publication PMC12196476, “New Nitrogen-, Oxygen-, and Sulfur-Containing Heterocyclic Compounds as Anti-Colon Cancer Agents: Synthesis, Multitargeted Evaluations, Molecular Docking Simulations and ADMET Predictions” (Pharmaceuticals, 2025)

Legend:
[1] = DPPH radical scavenging assay; settings: three independent experiments; read-out: Mean IC50 (mM) for initial DPPH radicals ± SD
[2] = test system: LoVo cells; assay: Mitochondrial membrane potential (TMRE staining), LoVo; type: cell-based, human; settings: 30 µg/mL, 48 h
Procedure: To assess mitochondrial integrity, TMRE staining was used to measure ΔΨm.
The mitochondrial transmembrane potential was measured using a tetramethylrhodamine, ethyl ester (TMRE) mitochondrial membrane potential assay kit. […]
medium served used as negative and positive controls, respectively. Percentages of viable cells […]
wells (final concentration of 100 μg/mL), compared to the negative control, and expressed as mean value (%) ± SD from two replicates. Graphing dose-response curves representing the compound […]
(HUVECs) at final concentration of 100 μg/mL . HUVECs were grown in Dulbecco’s Modified Eagle’s Medium supplemented with 10% FBS, 2 mM glutamine (Sigma Aldrich), 100 units/mL penicillin and […] streptomycin (Life Technologies; Paisley, UK).
S3.2.5. Cell cycle assay.
HCT-116 and LoVo cultures upon treatment with compound 3d. HCT-116 and LoVo carcinoma […]
μg/mL for 48 h. […] Then, cells […]
were fixed by mixing […] of 90% cold ethanol and stained with propidium iodide (PI) for 1 h at 37 °C. […]
of stained cancerous cells were determined. […]
carcinoma cells treated with compound 3d was assessed using the TMRE Mitochondrial Membrane […]
for TMRE staining. TMRE was excited using a 488 nm laser and detected in the FL2 channel at 575 […]
S3.2.9. Quantification of the Expression Levels of Bax, Bcl-2 and Caspase-3 Genes […]

In the case of `COc1cc(/C=N/c2ncnc3sc4c(c23)CCCC4)cc(OC)c1OC` [Compound 3d, (E)-N-(5,6,7,8-Tetrahydrobenzo[4,5]thieno[2,3-d]pyrimidin-4-yl)-1-(3,4,5-trimethoxyphenyl)methanimine], the IC50 [1] is reported as 0.164 ± 0.008 mM and the “Reduction of mitochondrial membrane potential (ΔΨm), LoVo cells” value [2] is reported as 60.23 ± 1.87%.
